According to PMC10409773, “Structure, catalysis, chitin transport, and selective inhibition of chitin synthase” (Nature Communications, 2023):

T1: Chs1 (chitin synthase 1) (Saccharomyces cerevisiae, UniProt P08004)
T1 construct: Chs1 (1131 residues) with C-terminal triple-FLAG; N-terminal ~374 residues largely disordered; homodimer
T1 sequence (P08004 1-1131): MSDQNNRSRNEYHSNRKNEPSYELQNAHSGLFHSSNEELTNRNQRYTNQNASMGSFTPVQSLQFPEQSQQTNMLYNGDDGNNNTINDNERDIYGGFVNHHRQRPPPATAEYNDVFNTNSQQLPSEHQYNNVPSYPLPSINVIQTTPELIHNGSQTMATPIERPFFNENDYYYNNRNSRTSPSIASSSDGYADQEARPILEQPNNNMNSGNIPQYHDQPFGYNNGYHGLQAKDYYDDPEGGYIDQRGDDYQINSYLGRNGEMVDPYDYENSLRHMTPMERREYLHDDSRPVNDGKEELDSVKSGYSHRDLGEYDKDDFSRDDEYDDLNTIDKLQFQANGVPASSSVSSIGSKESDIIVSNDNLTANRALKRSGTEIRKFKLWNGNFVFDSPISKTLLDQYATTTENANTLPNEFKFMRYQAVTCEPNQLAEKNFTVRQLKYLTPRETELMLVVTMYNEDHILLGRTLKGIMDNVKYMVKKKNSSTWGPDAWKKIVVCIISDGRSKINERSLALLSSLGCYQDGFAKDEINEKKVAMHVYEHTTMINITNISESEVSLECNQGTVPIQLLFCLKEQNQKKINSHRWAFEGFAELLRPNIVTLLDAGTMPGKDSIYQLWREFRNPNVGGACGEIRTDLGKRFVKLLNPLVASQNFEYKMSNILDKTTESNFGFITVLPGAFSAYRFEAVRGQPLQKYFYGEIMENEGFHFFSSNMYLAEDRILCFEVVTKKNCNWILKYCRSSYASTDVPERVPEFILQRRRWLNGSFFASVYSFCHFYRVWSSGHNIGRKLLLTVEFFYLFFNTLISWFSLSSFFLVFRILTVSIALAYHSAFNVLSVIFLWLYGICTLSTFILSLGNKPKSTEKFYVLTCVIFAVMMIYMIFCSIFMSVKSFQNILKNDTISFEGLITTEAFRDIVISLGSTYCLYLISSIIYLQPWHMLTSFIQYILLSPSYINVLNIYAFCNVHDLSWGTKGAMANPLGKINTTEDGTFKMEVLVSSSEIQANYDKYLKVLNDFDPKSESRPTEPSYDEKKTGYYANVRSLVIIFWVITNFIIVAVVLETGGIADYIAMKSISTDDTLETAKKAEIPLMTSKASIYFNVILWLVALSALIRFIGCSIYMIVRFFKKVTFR

B1: Saccharomyces cerevisiae chitin synthase 1 (Chs1), wild type, C-terminal triple FLAG (enzyme, S. cerevisiae)
chain: T1 sequence (P08004 1-1131)
notes: Chitin synthase 1 (Chs1), S. cerevisiae, UniProt P08004; the first 374 residues (except 245-271) are not seen in the maps; the purified sample was partly digested in the N-terminal region by endogenous protease (a smaller species lacks about the N-terminal 150 residues); also called ScChs1; scChs1

Experiments:
[1] = biological target: T1, Chs1 (chitin synthase 1); experiment: cryo-EM structure at […] Å with UDP-GlcNAc (also with UDP, 8K3U); format: binding
[2] = biological target: the molecule itself; experiment: cryo-EM structure; single-particle cryo-EM of purified Chs1 (~3 mg/mL) in LMNG/GDN/CHS, alone or with 5 mM UDP-GlcNAc, GlcNAc, UDP, Nikkomycin Z or Polyoxin B on ice; maps refined with C2 symmetry

Molecule | cryo-EM structure at 2.9 Å with UDP-GlcNAc (also with UDP, 8K3U) [1] | stoichiometry N [2]
CC(=O)N[C@H]1C(O)O[C@H](CO)[C@@H](O)[C@@H]1O (some centres unmarked) [GlcNAc] | The GlcNAc ring is vertically inserted into a slit between the indole ring of W760 and the pyrrolidine ring | –
B1 | – | 2
